Among the data in US5098613A, “Anti-inflammatory agents” (Eli Lilly and Company, priority 1990, dated 1992) are inhibition values, retold here.

The inhibition is the drop in the measured response relative to a control, in per cent.

Counter-ions that a name gives are not always drawn. Like-named read-outs stand apart in the source and are kept apart here.

The target of this test is T1, leukotriene B4 specific receptor on the membrane of human neutrophils (Homo sapiens, UniProt Q15722).
T1 construct: incubating neutrophils (1×10^7 cells) with 0.1-0.2 nM ^3 H-LTB4; endogenous in cells; host or cells: human peripheral blood neutrophils (buffy coats of two blood donors)
Description: Inhibition of Binding of ^3 H-LTB4 to Peripheral Human Neutrophils. The following applies: for inhibition at 10 µM: read-out: LTB4 Binding Inhibition; for inhibition at 1 µM: drug concentration 10^-6 M. As for the experimental part: The effectiveness of compounds to inhibit the binding of leukotriene B4 to a specific receptor on the membrane of human neutrophils was measured by using an adaptation of a radio-ligand binding assay developed by Goldman and Goetzl, J. Immunol., 129, 1600 (1982). Other investigators have developed similar assays (see, e.g., Kreisle, et al., J. Exp. Med., 157, 628 (1983) and Lin, et al., Prostaglandins, 28, 837 (1984)).
Cells used in the assay were isolated by standard techniques of centrifugation on Ficol-Hypaque, dextran 70 sedimentation and hypotonic lysis. The following procedure was used. Freshly-prepared buffy coat layers from two individuals were obtained from a local blood donor center. The cells were mixed and diluted to 484 ml. with phosphate buffered saline containing heparin (10 units/ml) and heat-inactivated calf serum (5%). This was divided into 20 ml. aliquots and the aliquots layered on top of Ficoll-Paque (12 ml.). The material was then centrifuged at 500 g. for 40 minutes at room temperature. The resulting upper layer of platelets and mononuclear cells was discarded. The lower layer containing erythrocytes and neutrophils was retained. Buffer was added (1 ml. per 4 ml. of lower layer) and the suspension mixed. For each milliliter of this mixture, 0.33 ml. of 6% Macrodex was added. After stirring, the cels were allowed to sediment for 1 hour at 37° C. The resulting erythrocyte pellet was discarded and the neutrophil enriched supernatant fluid centrifuged at 500 g. for 10 minutes at 4° C. Erythrocytes still present in this cell pellet were lysed by incubating the cells with 5-8 ml. ice-cold distilled water for 30-45 seconds. Subsequently, the volume was made up to 50 ml. by addition of ice-cold buffer and the cells resuspended. The suspension was then centrifuged at 300 g. for 10 minutes at 4° C. The cells were finally resuspended at a cell density of 2×10^7 cells/ml in the assay buffer. This buffer Consisted of Hanks' balanced salt solution and 0.1% ovalbumin (pH 7.3).
The radio-ligand binding assay was conducted by incubating neutrophils (1×10^7 cells) with 0.1-0.2 nM ^3 H-LTB4 (sp. act. 150-220 Curies/mmol) and test compound (1×10^-5 M and 1×10^-6 M) for 10 minutes at 4° C. The amount of bound ^3 H-LTB4 was then measured and compared with the amount bound in the absence of test compound. The assay was carried out in microcentrifuge tubes by adding first 10 μl test compound dissolved in DMSO, followed by adding 20 μl ^3 H-LTB4 diluted in assay buffer, and finally adding 500 μl of the cell suspension pension. At the end of the 10 minutes incubation, 300 μl of a mixture of dibutyl and dinonyl phthalate (7:2) were added and the tubes centrifuged for 2 minutes in a microcentrifuge. The radioactivity bound to the cell pellet was measured by scintillation spectroscopy. Appropriate corrections for nonspecific bonding of ^3 H-LTB4 were made.

Where [1] appears, read: drug concentration 10^-5 M, 4° C., 10 minutes.

T1 sequence (Q15722 whole entry): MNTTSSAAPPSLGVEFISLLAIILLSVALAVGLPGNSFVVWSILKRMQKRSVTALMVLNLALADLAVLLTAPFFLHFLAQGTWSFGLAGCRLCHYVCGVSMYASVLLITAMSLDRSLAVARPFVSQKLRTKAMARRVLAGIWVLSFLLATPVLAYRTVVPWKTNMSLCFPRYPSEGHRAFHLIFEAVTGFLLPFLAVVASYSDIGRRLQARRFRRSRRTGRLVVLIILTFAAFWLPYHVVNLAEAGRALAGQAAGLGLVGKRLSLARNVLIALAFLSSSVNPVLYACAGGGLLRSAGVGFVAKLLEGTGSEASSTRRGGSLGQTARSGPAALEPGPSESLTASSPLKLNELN

`CCOC(=O)Cn1nnc(CCCCOc2cc(O)c(C(C)=O)cc2CC)n1` [Example 141, 5-[4-(4-Acetyl-2-ethyl-5-hydroxyphenoxy)-butyl]-2H-tetrazole-2-acetic acid, ethyl ester]: under setting [1], the inhibition at 10 µM came to 90%. The inhibition at 1 µM (4° C., 10 minutes) turned out to be 57%.

`C=CCc1cc(C(C)=O)c(O)cc1OCCCCCCS(C)(=O)=O` [Example 80, 2-hydroxy-4-[6-(methylsulfonyl)-hexyloxy]-5-allylacetophenone]: the inhibition at 10 µM stood at 100%. Besides, the inhibition at 1 µM (4° C., 10 minutes) was found to be 62%.

As to `C=CCCCCOc1cc(O)c(C(C)=O)cc1CC=C` [Example 46, 4-(5-Hexenyloxy)-2-hydroxy-5-allylacetophenone], under setting [1], the inhibition at 10 µM was 72%. Moreover, where the note is “4° C., 10 minutes”, the inhibition at 1 µM came out at 26%.

With `C=CCc1cc(C(C)=O)c(O)cc1OCCCCCC(=O)N(C)C` [Example 97, 6-(4-Acetyl-5-hydroxy-2-allylphenoxy)-N,N-dimethylhexanamide], the inhibition at 10 µM under setting [1] was 91%. In addition, the inhibition at 1 µM (4° C., 10 minutes) stood at 53%.

`COCc1cc(C(C)=O)c(O)cc1OCCCCCCC#N` [Example 129, 7-[4-Acetyl-5-hydroxy-2-(methoxymethyl)phenoxy]-hdptanentrile]: the inhibition at 10 µM under setting [1] was 47%. Also, where the note is “4° C., 10 minutes”, the inhibition at 1 µM turned out to be 7%.

As for `C=CCc1cc(C(C)=O)c(O)cc1OCCCCCCC` [Example 37, 4-(Heptyloxy)-2-hydroxy-5-allylacetophenone], the inhibition at 10 µM under setting [1] turned out to be 31%. For the same compound, for the setting “4° C., 10 minutes”, the inhibition at 1 µM was determined as 8%.

On to `C=CCCOc1cc(O)c(C(C)=O)cc1CC=C` [Example 45, 4-(3-Butenyloxy)-2-hydroxy-5-allylacetophenone], for which, under setting [1], the inhibition at 10 µM worked out at 51%. The inhibition at 1 µM (4° C., 10 minutes) worked out at 15%.

Regarding `CCc1cc(C(=O)c2ccc(C(=O)O)cc2)c(O)cc1OCCCCC#N` [Example 91, 4[4-(4-Cyanobutoxy)-5-ethyl-2-hydroxybenzoyl]benzoic acid], the inhibition at 10 µM under setting [1] was determined as 26%. Also, the inhibition at 1 µM (4° C., 10 minutes) came to 20%.

Regarding `CCc1cc(C(=O)CCCC(=O)O)c(O)cc1OCCCCC#N` [Example 88, 5-[(4-Cyanobutoxy)-5-ethyl-2-hydroxybenzene]-5-oxopentanoic acid], the inhibition at 10 µM under setting [1] is 19%. For the same compound, for the setting “4° C., 10 minutes”, the inhibition at 1 µM was -1%.

With `CCCCCc1cc(C(C)=O)c(O)cc1OCCCCC#N` [Example 31, 5-(4-Acetyl-5-hydroxy-2-pentylphenoxy)-pentanenitrile], the inhibition at 10 µM under setting [1] stood at 30%. Also, the inhibition at 1 µM (4° C., 10 minutes) amounted to 14%.

For `C=CCc1cc(C(C)=O)c(O)cc1OCCCCC#N` [Example 139, 5-(4-Acetyl-5-hydroxy-2-allylphenoxy)pentanenitrile], the inhibition at 10 µM turned out to be 92%. The inhibition at 1 µM (4° C., 10 minutes) is 53%.

Consider `CCc1cc(C(C)=O)c(O)cc1OCCCC(C)(C)C#N` [Example 133, 5-(4-Acetyl-2ethyl-5-hydroxyphenoxy)-2,2-dimethylpentanitrile], for which the inhibition at 10 µM under setting [1] is 89%. For the same compound, the inhibition at 1 µM (4° C., 10 minutes) turned out to be 48%.

As to `CCc1cc(C(C)=O)c(O)cc1OCCCCCCSC` [Example 81, 2-Hydroxy-4-[6-(methylthio)hexyloxy]-5-ethylacetophenone], the inhibition at 10 µM under setting [1] was in the range of 71 to 94%. Also, under “4° C., 10 minutes”, the inhibition at 1 µM lay in the range of 14 to 59%.

As for `C=CCc1cc(C(C)=O)c(O)cc1OCCCCCC(C)=O` [Example 102], under setting [1], the inhibition at 10 µM was 97%. Also, the inhibition at 1 µM (4° C., 10 minutes) stood at 57%.

In the case of `C=CCc1cc(C(C)=O)c(O)cc1OCCCCCC(=O)O` [Example 86, 6-(4-Acetyl-2-allyl-5-hydroxyphenoxy)hexanoic acid], the inhibition at 10 µM under setting [1] amounted to 73%. Moreover, the inhibition at 1 µM (4° C., 10 minutes) is 23%.

For `C=CCc1cc(C(C)=O)c(O)cc1OCCCC` [Example 40, 4-Butoxy-2-hydroxy-5-allylacetophenone], the inhibition at 10 µM under setting [1] is 31%. Further, the inhibition at 1 µM (4° C., 10 minutes) turned out to be 8%.

For `CCc1cc(C(C)=O)c(O)cc1OCCCCCCC(=O)O` [Example 85, 7-(4-Acetyl-2-ethyl-5-hydroxyphenoxy)heptanoio acid], under setting [1], the inhibition at 10 µM was 86%. Moreover, the inhibition at 1 µM (4° C., 10 minutes) amounted to 37%.

`C=CCc1cc(C(C)=O)c(O)cc1OC` [Example 42, 2-Hydroxy-4-methoxy-5-allylacetophenone]: the inhibition at 10 µM under setting [1] is 6%. Besides, the inhibition at 1 µM (4° C., 10 minutes) is 12%.

On to `CCc1cc(CC)c(OCCCCCC(C)(C)c2nnn[nH]2)cc1O` [Example 151, 2,4-Diethyl-5-{[6-methyl-6-(1H-tetrazol-5-yl)heptyl]oxy}phenol], for which the inhibition at 10 µM under setting [1] is 105%. Also, the inhibition at 1 µM (4° C., 10 minutes) was 103%. Moreover, the inhibition at 0.1 µM (drug concentration 10^-7 M, 4° C., 10 minutes) stood at 78%.

For `CCOC(=O)Cn1nnnc1CCCCOc1cc(O)c(C(C)=O)cc1CC` [Example 142, 5-[4-(4-acetyl-2-ethyl-5-hydroxyphenoxy)butyl]-1H-tetrazole-1-acetic acid, ethyl ester], the inhibition at 10 µM under setting [1] amounted to 34%. The inhibition at 1 µM (4° C., 10 minutes) amounted to 5%.

As for `C=CCc1cc(C(C)=O)c(O)cc1OCCCCCCCCCCC#N` [Example 70, 11-(4-Acetal-5-hydroxy-2-allylphenoxy)-undecanenitrile], the inhibition at 10 µM under setting [1] stood at 50%. In addition, the inhibition at 1 µM (4° C., 10 minutes) was 14%.

On to `CCc1cc(C(C)=O)c(O)cc1OCCCCCNC(C)=O` [Example 138, N-[5-(4-Acetyl-2-ethyl-5-hydroxyphenoxy)-pentyl]acetamide], for which the inhibition at 10 µM under setting [1] worked out at 98%. Moreover, the inhibition at 1 µM (4° C., 10 minutes) was 58%.

With `C=CCc1cc(C(C)=O)c(O)cc1OCCCCCC(C)(C)O` [Example 103, 2-Hydroxy-4-(6-hydroxy-6-methylheptyloxy)-5-allylacetophenone], under setting [1], the inhibition at 10 µM was 97%. Also, under “4° C., 10 minutes”, the inhibition at 1 µM stood at 59%.

Take `C=CCc1cc(C(C)=O)c(O)cc1OCCCCO` [Example 44, 4-(4-Hydroxybutoxy)-5-allyl-2-huydroxy-aoetophenone]: the inhibition at 10 µM under setting [1] is 47%. The inhibition at 1 µM (4° C., 10 minutes) is 9%.

As for `CCCc1cc(C(C)=O)c(O)cc1OCCCCNC(C)=O` [Example 77, N-[4-(4-Acetyl-5-hydroxy-2-propylphenoxy)-butyl]acetamide], the inhibition at 10 µM under setting [1] is 71%. The inhibition at 1 µM (4° C., 10 minutes) came out at 23%.

As for `CCCc1cc(C(C)=O)c(O)cc1OCCCCN` [Example 74, 4-(4-Aminobutoxy)-2-hydroxy-5-propylacetophenone hydrochloride], the inhibition at 10 µM under setting [1] came out at 0%. In addition, the inhibition at 1 µM (4° C., 10 minutes) was 0%.

Turning to `C=CCc1cc(C(C)=O)c(O)cc1OCCCCCC(N)=O` [Example 96, 6-(4-Acetyl-5-hydroxy-2-allylphenoxy)hexanamide], the inhibition at 10 µM under setting [1] was found to be 87%. Moreover, under “4° C., 10 minutes”, the inhibition at 1 µM was determined as 37%.

For the compound `CSCc1cc(C(C)=O)c(O)cc1OCCCCCCC#N` [Example 128, 7-[4-Acetyl-5-hydroxy-2-(methylthiomethyl)-phenoxy]heptanenitrile], the inhibition at 10 µM under setting [1] was 97%. Further, the inhibition at 1 µM (4° C., 10 minutes) came to 64%.

Regarding `CCOC(=O)c1ccc(COc2cc(O)c(C(C)=O)cc2CC)cc1O` [Example 147, 4-[(4-Acetyl-2-ethyl-5-hydroxyphenoxy)methyl]-2-hydroxybenzoic acid, ethyl ester], the inhibition at 10 µM under setting [1] came out at 2%. Besides, the inhibition at 1 µM (4° C., 10 minutes) is 3%.

As for `CC(=O)c1cc(C(C)=O)c(OCCCCC#N)cc1O` [Example 16, 5-(2,4-Diacetyl-5-hydroxy-phenoxy)pentanenitrile], the inhibition at 10 µM under setting [1] was found to be 8%. In addition, the inhibition at 1 µM (4° C., 10 minutes) was -7%.

Consider `CC(=O)c1cc(C)c(OCCCCC#N)cc1O` [Example 28, 5-(4-Acetyl-2-methyl-5-hydroxyphenoxy)-pentanenitrile], for which the inhibition at 10 µM under setting [1] stood at 77%. Moreover, for the setting “4° C., 10 minutes”, the inhibition at 1 µM stood at 32%.

Turning to `C=CCc1cc(C(C)=O)c(O)cc1OCCCCc1nnn(C)n1` [Example 120, 2-Hydroxy-4-[4-(2-methyl-2H-tetrazol5-yl)butoxy]-5-allylacetophenone], the inhibition at 10 µM under setting [1] amounted to 97%. In addition, the inhibition at 1 µM (4° C., 10 minutes) came out at 55%.
